Measured values taken from patent US10577349B2 (Sanford Burnham Prebys Medical Discovery Institute, priority 2015, dated 2020).
In brackets after ≈: the same amount, converted by molar mass. Where two headings read alike, the source gives them in different places.

Tests used:
eIF4F complex = molecular target: T1, eIF4F complex (Mus musculus, UniProt Q6NZJ6); experiment: m7GTP pull-down assay, WT or 4E-BP DKO MEFs; format: cell-based; details: 6 hours, Torin1 250 nmol/L
T1 construct: endogenous in cells; host or cells: WT and 4E-BP1/2 double-knock-out MEFs
T1 sequence (Q6NZJ6 whole entry, one chain of several): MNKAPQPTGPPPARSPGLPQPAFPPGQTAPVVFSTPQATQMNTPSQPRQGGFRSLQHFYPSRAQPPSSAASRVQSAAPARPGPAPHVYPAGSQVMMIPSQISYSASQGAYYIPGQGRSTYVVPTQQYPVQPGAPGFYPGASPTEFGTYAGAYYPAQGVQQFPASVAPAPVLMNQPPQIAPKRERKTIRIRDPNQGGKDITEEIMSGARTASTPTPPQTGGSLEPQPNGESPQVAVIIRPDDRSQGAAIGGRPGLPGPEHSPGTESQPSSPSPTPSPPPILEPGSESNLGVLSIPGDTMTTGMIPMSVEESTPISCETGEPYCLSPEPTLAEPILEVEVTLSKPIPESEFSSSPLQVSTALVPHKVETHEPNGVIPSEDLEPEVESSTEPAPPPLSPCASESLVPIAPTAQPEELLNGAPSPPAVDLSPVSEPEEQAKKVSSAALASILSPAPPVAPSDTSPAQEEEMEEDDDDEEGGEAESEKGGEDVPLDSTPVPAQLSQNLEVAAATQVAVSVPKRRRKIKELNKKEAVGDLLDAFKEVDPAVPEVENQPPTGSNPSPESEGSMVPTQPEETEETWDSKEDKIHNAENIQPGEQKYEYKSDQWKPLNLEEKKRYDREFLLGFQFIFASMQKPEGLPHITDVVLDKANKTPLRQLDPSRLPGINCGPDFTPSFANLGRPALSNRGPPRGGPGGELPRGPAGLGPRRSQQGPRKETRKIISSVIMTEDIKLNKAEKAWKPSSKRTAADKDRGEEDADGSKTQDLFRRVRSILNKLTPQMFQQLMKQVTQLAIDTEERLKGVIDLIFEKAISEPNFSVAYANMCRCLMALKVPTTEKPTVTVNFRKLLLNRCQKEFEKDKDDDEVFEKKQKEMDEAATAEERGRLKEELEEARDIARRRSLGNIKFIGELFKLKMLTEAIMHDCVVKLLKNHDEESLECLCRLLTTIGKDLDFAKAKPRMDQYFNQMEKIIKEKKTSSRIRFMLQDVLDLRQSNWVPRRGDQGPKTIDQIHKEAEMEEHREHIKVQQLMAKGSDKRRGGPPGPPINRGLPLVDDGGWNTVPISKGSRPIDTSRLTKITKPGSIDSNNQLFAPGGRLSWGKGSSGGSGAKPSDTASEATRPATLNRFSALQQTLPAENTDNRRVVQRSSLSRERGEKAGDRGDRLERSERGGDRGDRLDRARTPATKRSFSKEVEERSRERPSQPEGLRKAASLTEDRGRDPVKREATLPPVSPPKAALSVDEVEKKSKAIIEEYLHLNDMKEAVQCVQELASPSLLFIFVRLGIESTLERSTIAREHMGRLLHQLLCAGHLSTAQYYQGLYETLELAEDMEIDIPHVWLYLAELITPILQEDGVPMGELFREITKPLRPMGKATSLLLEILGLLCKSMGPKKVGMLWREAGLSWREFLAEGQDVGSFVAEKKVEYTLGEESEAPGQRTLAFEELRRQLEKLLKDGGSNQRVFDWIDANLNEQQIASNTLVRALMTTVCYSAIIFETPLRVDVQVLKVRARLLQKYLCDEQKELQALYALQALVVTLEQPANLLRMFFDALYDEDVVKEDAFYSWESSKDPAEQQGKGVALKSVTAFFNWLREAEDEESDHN
Description: As previously described (Dowling R J, et al. mTORC1-mediated cell proliferation, but not cell growth, controlled by the 4E-BPs. Science. 2010; 328:1172-6), cells growing in 100 mm plates were washed (cold PBS), collected, and lysed in 50 mM MOPS/KOH (7.4), 100 mM NaCl, 50 mM NaF, 2 mM EDTA, 2 mM EGTA, 1% NP40, 1% Na-DOC, 7 mM β-mercaptoethanol, protease inhibitors and phosphatase inhibitor cocktail (Roche). Lysates were incubated with m7-GDP-agarose beads (Jena Bioscience) for 20 minutes, washed 4 times with the washing buffer containing 50 mM MOPS/KOH (7.4), 100 mM NaCl, 50 mM NaF, 0.5 mM EDTA, 0.5 mM EGTA, 7 mM (3-mercaptoethanol, 0.5 mM PMSF, 1 mM Na3VO4 and 0.1 mM GTP, and bound proteins were eluted by boiling the beads in loading buffer. m7-GDP-agarose pulled down material was analyzed by Western blot analysis.
Indicated cultures (WT or DKO 4E-BP) were treated with Torin1 (250 nmol/L) or indicated Compound 38 concentrations for 6 hours. Western blots show respective protein levels in total cell lysates or following pull-down using m^7GTP agarose beads. […] P3-Actin served as a loading control and to exclude contamination in m^7GTP pull-down.

[1] = molecular target: HCV cap-independent translation; experiment: In vitro translation assay, FF-HCV-Ren construct, cap-independent (Ren luciferase); format: biochemical, rabbit reticulocyte lysates
Procedure, shortened: (§1)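 Luminescence read-out: firefly signal reports cap-dependent and Renilla signal IRES-dependent translation from FF-IRES-Ren bicistronic RNA in rabbit reticulocyte lysate. Lysate was pre-incubated with compound 1 h at room temperature before adding RNA and translating 2 h at 30° C.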

[2] = molecular target: EmCV Cap-independent translation; experiment: In vitro translation assay, FF-EmCV-Ren construct, cap-independent (Ren luciferase); format: biochemical, rabbit reticulocyte lysates
Procedure, shortened: as §1

[3] = molecular target: EmCV Cap-dependent translation; experiment: In vitro translation assay, FF-EmCV-Ren construct, cap-dependent (FF luciferase); format: biochemical, rabbit reticulocyte lysates
Procedure, shortened: as §1

[4] = Aqueous Solubility in pION's buffer; format: physicochemical
A375 = experiment: 48 h Cytotoxicity A375; format: cell-based; details: Homo sapiens, A-375
[5] = molecular target: HCV cap-dependent translation; experiment: In vitro translation assay, FF-HCV-Ren construct, cap-dependent (FF luciferase); format: biochemical, rabbit reticulocyte lysates
Procedure, shortened: as §1

PAMPA Permeability = format: in vitro ADME
[6] = Aqueous Solubility in 1xPBS, pH 7.4; format: physicochemical; details: pH 7.4, aqueous buffer
[7] = Hepatic Microsome Stability Mouse; format: in vitro ADME
[8] = Hepatic Microsome Stability Human; format: in vitro ADME
[9] = aqueous buffer, pH 5.0, read-out: Aqueous Solubility in pION's buffer pH 5.0
[10] = pH 6.2, aqueous buffer, read-out: Aqueous Solubility in pION's buffer pH 6.2
[11] = pH 7.4, aqueous buffer, read-out: Aqueous Solubility in pION's buffer pH 7.4
[12] = Donor pH 5.0, Acceptor pH 7.4, read-out: PAMPA Permeability, Pe, Donor pH 5.0
[13] = Donor pH 6.2, Acceptor pH 7.4, read-out: PAMPA Permeability, Pe, Donor pH 6.2
[14] = pH 7.4, Donor pH 7.4, Acceptor pH 7.4, read-out: PAMPA Permeability, Pe, Donor pH 7.4

Compound	eIF4G1:eIF4E association (m7GTP pull-down) (eIF4F complex)	IC50 [1] [µM]	IC50 [2] [µM]	IC50 [3] [µM]	solubility [4, 9] [µg/mL]	solubility [4, 10] [µg/mL]	solubility [4, 11] [µg/mL]	IC50 (A375) [µM]	IC50 [5] [µM]	Papp (PAMPA Permeability; [12]) [×10⁻⁶ cm/s]	Papp (PAMPA Permeability; [13]) [×10⁻⁶ cm/s]	Papp (PAMPA Permeability; [14]) [×10⁻⁶ cm/s]	solubility [6] [µg/mL]	Hepatic Microsome Stability (% remaining at 1 Hr) Mouse [7] [% remaining]	Hepatic Microsome Stability (% remaining at 1 Hr) Mouse (no NADPH) [7] [% remaining]	Hepatic Microsome Stability (% Remaining at 1 hr) Human [8] [% Remaining]	Hepatic Microsome Stability (% Remaining at 1 hr) Human (no NADPH) [8] [% Remaining]
CCC(=O)N1CCN(c2ccc(-n3c(=O)ccc4cnc5ccc(-c6cnc7ccccc7c6)cc5c43)cc2C(F)(F)F)CC1 [torin1, reference compound]	induced dissociation of eIF4G1 from eIF4E in WT but not in 4E-BPDKOMEFs																
O=C(/C=C/c1nc2cc(Cl)ccc2[nH]1)c1c(-c2ccccc2)c2cc(Cl)ccc2[nH]c1=O [Compound 62, 6-Chloro-3-[3-(5-chloro-1H-benzoimidazol-2-yl)-acryloyl]-4-phenyl-1H-quinolin-2-one]		2 to 10	2 to 10	2 to 10	0.34 (≈ 0.739 µM)	0.42 (≈ 0.912 µM)	0.12 (≈ 0.261 µM)	< 2	2 to 10	29	6.2	2.5	0.11 (≈ 0.239 µM)	85.64	82.96	89.89	54.66
O=C(/C=C/c1ccccc1)c1c(C2CCCCC2)c2cc(Cl)ccc2[nH]c1=O [Compound 12, 6-chloro-3-cinnamoyl-4-cyclohexylquinolin-2(1H)-one]		> 20	10 to 20	2 to 10	1.6 (≈ 4.08 µM)	1.4 (≈ 3.57 µM)	1.2 (≈ 3.06 µM)	< 2	10 to 20	1010	301	379	1.5 (≈ 3.83 µM)	32.98	63.69	59.85	57.73
